Data from patent US20240409538A1, “SUBSTITUTED TRIAZOLOHETEROARYL COMPOUNDS AS USP1 INHIBITORS AND THE USE THEREOF” (IMPACT THERAPEUTICS (SHANGHAI), INC., priority 2021, published 2024).

Legend:
[1] = system: BRCA mutant human breast cancer MDA-MB-436 cell line; assay: Growth inhibition of MDA-MB-436 cells, CTG (Celltiter-Glo) method; assay type: cell-based; details: MDA-MB-436, 168 h, 7 days incubation, read-out: IC50 (nM), inhibition of proliferation of MDA-MB-436 cells, CTG method
Procedure: (§1) The cells were cultured in complete medium (DMEM medium+10% FBS+Insulin+glutathione). When the confluence reached about 80%, cells were digested and gently dispensed from the bottom of the dish with a 1 mL pipette. Cell suspension was collected and centrifuged at 500 rpm for 3 min. The supernatant was discarded, and the cell pellet were re-suspended in complete medium. The cells were seeded into a culture dish at an appropriate proportion, and then cultured in a 5% CO2 incubator at 37° C. The assay was carried out when the cells were in optimum condition and the confluence was reached 80%. Cells in the logarithmic growth phase were taken to centrifugate, and the culture supernatant was removed. The cells were resuspended in refresh complete medium and counted. The resuspended cells were seeded at 3000/well in a 96-well plate and incubated at 37° C., 5% CO2 incubator overnight. The compound was prepared as below: 1000× dilution tested compound solution to 40× test compound solution by adding 5 μL 1000× compound solution to 120 μL Medium (25-fold dilution). The solution was mixed by oscillation, 0.1% DMSO was used as the control.
(§2) The next day, the 96-well plate inoculated with cells was taken out from the incubator, and the culture supernatant was removed. Then fresh medium of 195 uL/well and 5 μL/well of 40× test compound solution as mentioned above were added into the 96 well plate, respectively. Finally, the plate was incubated for 7 days in a 37° C. 5% CO2 incubator. The medium containing compound was changed on the fourth day.
CTG Method: After 7 days, 100 μL Celltiter-Glo reagent was added to each well, and then the plate was shake for 2 minutes to fully lysate. Then the plate was incubated at room temperature for 10 minutes, and the chemiluminescence values were read by plate reader.
The inhibitory activity of compounds on cell proliferation was plotted using cell survival rate against the compound concentration as coordinates. Cell inhibition rate %=(Lumcompound−LumDMSO)/(Lummedium−LumDMSO)×100. Lum refers to the chemiluminescence value.
XL Fit software was used to Fit nonlinear s-curve regression to Fit the data to obtain dose-effect curves, from which IC50 values were calculated. Y=Bottom+(Top−Bottom)/(1+10^((Log IC50−X)×slope)), Where Y is the cell inhibition rate, X is the compound concentration, Bottom is the lowest inhibition rate. Top is the highest inhibition rate.
Table 2 summarizes the inhibitory effect data (IC50) of the compounds on the proliferation of human breast cancer cells MDA-MB-436 determined by CTG method.

[2] = target: USP1/UAF1 (Homo sapiens (Human), UniProt O94782); assay: USP1/UAF1 activity, ubiquitin-rhodamine110-glycine (Ub-Rho) assay; assay type: biochemical; details: 0.1 nM USP1/UAF1, 100 nM Ub-Rho, 120 minutes; read-out: IC50 (nM), inhibitory effects on USP1/UAF1 activity
Procedure: USP1/UAF1 activity was determined by using ubiquitin-rhodamine110-glycine (Ub-Rho; Boston Biochem) assay. Enzymatic reactions were conducted in an assay buffer (50 mM Tris-HCl, pH 7.8, 0.5 mM EDTA, 100 mM NaCl, 1 mM DTT, 0.01 BSA, and 0.01% Tween-20) that contained 0.1 nM USP1/UAF1. Each individual compound was tested at ten concentrations in the range of 0.0005 to 10 μM. The plates were incubated for 15 min to attain equilibrium, and then the enzymatic reaction was initiated by dispensing 10 μL of Ub-Rho solution (100 nM final concentration). After treating 120 minutes with Ub-Rho solution, the rhodamine fluorescence was acquired using a 480 nm excitation/540 nm emission filter set by using Envision instrument. The inhibition rate of the compound to USP1/UAF1 enzyme activity was calculated according to the following formula.
IC50 value is obtained by fitting the s-shaped dose response curve equation by using XL Fit software. The curve equation is Y=100/(1+10^(log C−log IC50)). C is the compound concentration.

[3] = system: BRCA mutant human breast cancer MDA-MB-436 cell line; assay: Growth inhibition of MDA-MB-436 cells, CCK-8 method; assay type: cell-based; details: MDA-MB-436, 168 h, 7 days incubation, read-out: IC50 (nM), inhibition of proliferation of MDA-MB-436 cells, CCK-8 method
Procedure: as §1, §2
CCK Method: After 7 days, 20 μL of CCK-8 was added to each well and shaken gently, then was cultured for 4 hours. The plate was shaken for 5 min after incubation, the absorbance values of 450 nm or 650 nm wavelengths were recorded respectively (OD=absorbance value of 450 nm−absorbance value of 650 nm) by using the multifunction readout instrument.
Data were analyzed by software GraphPad Prism 6.0. The inhibitory activity of compounds on cell proliferation was plotted using cell survival rate against the compound concentration as coordinates. Cell survival rate %=(ODcompound−ODbackground)/(ODDMSO−ODbackground)×100. The IC50 value was fitted by the s-shaped dose response curve equation: Y=100/(1+10^(log C−log IC50)), and C was the compound concentration.
Table 3 summarizes the inhibitory effect data (IC50) of the compounds on the proliferation of human breast cancer cells MDA-MB-436 determined by CCK-8 method.

USP1/UAF1, sequence (O94782 whole entry): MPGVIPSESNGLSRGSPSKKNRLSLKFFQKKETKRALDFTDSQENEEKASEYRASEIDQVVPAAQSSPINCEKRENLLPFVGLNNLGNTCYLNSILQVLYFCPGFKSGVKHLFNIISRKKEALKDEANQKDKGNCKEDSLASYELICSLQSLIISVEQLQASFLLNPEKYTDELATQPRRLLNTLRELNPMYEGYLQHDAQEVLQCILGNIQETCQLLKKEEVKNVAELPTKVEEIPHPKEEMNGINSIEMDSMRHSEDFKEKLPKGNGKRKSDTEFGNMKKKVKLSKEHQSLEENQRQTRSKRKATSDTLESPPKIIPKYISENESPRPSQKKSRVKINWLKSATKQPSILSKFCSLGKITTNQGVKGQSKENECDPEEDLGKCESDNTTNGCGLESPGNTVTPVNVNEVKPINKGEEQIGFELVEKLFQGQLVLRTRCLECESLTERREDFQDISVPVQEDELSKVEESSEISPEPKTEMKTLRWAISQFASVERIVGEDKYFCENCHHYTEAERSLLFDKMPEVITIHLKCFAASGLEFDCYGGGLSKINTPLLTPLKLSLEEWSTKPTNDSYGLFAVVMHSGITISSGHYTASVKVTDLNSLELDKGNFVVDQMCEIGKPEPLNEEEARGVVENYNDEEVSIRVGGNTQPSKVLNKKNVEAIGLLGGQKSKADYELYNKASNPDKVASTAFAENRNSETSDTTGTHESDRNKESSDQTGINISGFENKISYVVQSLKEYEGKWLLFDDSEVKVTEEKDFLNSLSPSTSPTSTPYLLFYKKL
USP1/UAF1, sequence (Q8TAF3 whole entry partner): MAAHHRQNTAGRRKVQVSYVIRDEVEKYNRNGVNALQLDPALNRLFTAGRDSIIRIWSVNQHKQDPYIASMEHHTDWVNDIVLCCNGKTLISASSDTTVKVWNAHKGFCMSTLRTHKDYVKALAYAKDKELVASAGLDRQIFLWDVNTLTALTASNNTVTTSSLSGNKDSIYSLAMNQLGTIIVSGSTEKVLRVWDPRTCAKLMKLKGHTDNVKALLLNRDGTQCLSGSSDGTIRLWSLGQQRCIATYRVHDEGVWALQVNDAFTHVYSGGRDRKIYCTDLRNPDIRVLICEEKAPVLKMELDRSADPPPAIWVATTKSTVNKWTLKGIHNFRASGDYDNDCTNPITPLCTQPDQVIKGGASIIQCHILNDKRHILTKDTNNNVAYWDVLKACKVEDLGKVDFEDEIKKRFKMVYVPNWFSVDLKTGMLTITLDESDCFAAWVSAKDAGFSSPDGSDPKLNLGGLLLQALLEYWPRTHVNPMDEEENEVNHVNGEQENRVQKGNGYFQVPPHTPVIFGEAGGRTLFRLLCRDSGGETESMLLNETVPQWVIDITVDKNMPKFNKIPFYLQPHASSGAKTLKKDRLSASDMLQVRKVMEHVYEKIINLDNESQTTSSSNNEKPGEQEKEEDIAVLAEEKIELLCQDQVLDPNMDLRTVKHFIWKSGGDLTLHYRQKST

Row | SMILES | IC50 [1] | IC50 [2] | IC50 [3]
1 | Cc1cn(C)c(-c2ccc(Cc3cccn4nc(-c5ccccc5C(C)C)nc34)cc2)n1 [Example 1, 8-(4-(1,4-dimethyl-1H-imidazol-2-yl)benzyl)-2-(2-isopropylphenyl)-[1,2,4]triazolo[1,5-a]pyridine] | 161 nM |  | 
2 | COc1ccccc1-c1nc2c(Cc3ccc(-c4nc(C)cn4C)cc3)cccn2n1 [Example 2, 8-(4-(1,4-dimethyl-1H-imidazol-2-yl)benzyl)-2-(2-methoxyphenyl)-[1,2,4]triazolo[1,5-a]pyridine] | > 1000 nM |  | 
3 | COc1ncnc(C2CC2)c1-c1nc2c(Cc3ccc(-c4nc(C(F)(F)F)cn4C(C)C)cc3)cccn2n1 [Example 4, 2-(4-cyclopropyl-6-methoxypyrimidin-5-yl)-8-(4-(1-isopropyl-4-(trifluoromethyl)-1H-imidazol-2-yl)benzyl)-[1,2,4]triazolo[1,5-a]pyridine] |  | 66.6 nM | 25.5 nM
4 | COc1ncnc(C2CC2)c1-c1nc2c(Cc3ccc(-c4nc(C(F)(F)F)cn4C)cc3)cccn2n1 [Example 5, 2-(4-cyclopropyl-6-methoxypyrimidin-5-yl)-8-(4-(1-methyl-4-(trifluoromethyl)-1H-imidazol-2-yl)benzyl)-[1,2,4]triazolo[1,5-a]pyridine] |  | 39.1 nM | 38.8 nM
5 | COc1ncnc(C2CC2)c1-c1nc2c(Cc3ccc(-n4nc(C(F)(F)F)cc4C)cc3)cccn2n1 [Example 6, 2-(4-cyclopropyl-6-methoxypyrimidin-5-yl)-8-(4-(5-methyl-3-(trifluoromethyl)-1H-pyrazol-1-yl)benzyl)-[1,2,4]triazolo[1,5-a]pyridine] |  | 460 nM | 28.3 nM
6 | CC(C)c1ccccc1-c1nc2c(Cc3ccc(-c4nc(C(F)(F)F)cn4C)cc3)ccnn2n1 [Example 9, 2-(2-isopropylphenyl)-8-(4-(1-methyl-4-(trifluoromethyl)-1H-imidazol-2-yl)benzyl)-[1,2,4]triazolo[1,5-b]pyridazine] |  |  | 1170 nM
7 | CC(C)c1ccccc1-c1nc2cccc(Cc3ccc(-c4nc(C(F)(F)F)cn4C)cc3)n2n1 [Example 10, 2-(2-isopropylphenyl)-5-(4-(1-methyl-4-(trifluoromethyl)-1H-imidazol-2-yl)benzyl)-[1,2,4]triazolo[1,5-a]pyridine] |  |  | 226 nM
8 | Cc1cnn(C(C)C)c1-c1nc2cccc(Cc3ccc(-c4nc(C(F)(F)F)cn4C)cc3)n2n1 [Example 15, 2-(1-isopropyl-4-methyl-1H-pyrazol-5-yl)-5-(4-(1-methyl-4-(trifluoromethyl)-1H-imidazol-2-yl)benzyl)-[1,2,4]triazolo[1,5-a]pyridine] |  |  | 10.3 nM
9 | Cc1cnn(C(C)C)c1-c1nc2c(Cc3ccc(-c4nc(C(F)(F)F)cn4C)cc3)cccn2n1 [Example 16, 2-(1-isopropyl-4-methyl-1H-pyrazol-5-yl)-8-(4-(1-methyl-4-(trifluoromethyl)-1H-imidazol-2-yl)benzyl)-[1,2,4]triazolo[1,5-a]pyridine] |  | 15.8 nM | 13.2 nM
10 | Cc1cnn(C(C)C)c1-c1nc2c(Cc3ccc(-c4nc(C(F)(F)F)cn4C)cc3)ccnn2n1 [Example 17, 2-(1-isopropyl-4-methyl-1H-pyrazol-5-yl)-8-(4-(1-methyl-4-(trifluoromethyl)-1H-imidazol-2-yl)benzyl)-[1,2,4]triazolo[1,5-b]pyridazine] |  |  | 39.5 nM
11 | COc1ncnc(C2CC2)c1-c1nc2c(Cc3ccc(-c4nc(C(F)(F)F)cn4C)cc3)cncn2n1 [Example 19, 2-(4-cyclopropyl-6-methoxypyrimidin-5-yl)-8-(4-(1-methyl-4-(trifluoromethyl)-1H-imidazol-2-yl)benzyl)-[1,2,4]triazolo[1,5-c]pyrimidine] |  | 138 nM | 44.8 nM
12 | COc1ncnc(OC)c1-c1nc2c(Cc3ccc(-c4nc(C(F)(F)F)cn4C)cc3)cccn2n1 [Example 27, 2-(4,6-dimethoxypyrimidin-5-yl)-8-(4-(1-methyl-4-(trifluoromethyl)-1H-imidazol-2-yl)benzyl)-[1,2,4]triazolo[1,5-a]pyridine] | 158 nM |  | 
13 | COc1ncnc(C2CC2)c1-c1nc2cccc(Cc3ccc(-c4nc(C(F)(F)F)cn4C4CC4)cc3)n2n1 [Example 37, 5-(4-(1-cyclopropyl-4-(trifluoromethyl)-1H-imidazol-2-yl)benzyl)-2-(4-cyclopropyl-6-methoxypyrimidin-5-yl)-[1,2,4]triazolo[1,5-a]pyridine] |  | 9.53 nM | 
14 | COc1ncnc(C2CC2)c1-c1nc2cccc(Cc3ccc(-c4nc(C(F)(F)F)cn4C)c(F)c3)n2n1 [Example 38, 2-(4-cyclopropyl-6-methoxypyrimidin-5-yl)-5-(3-fluoro-4-(1-methyl-4-(trifluoromethyl)-1H-imidazol-2-yl)benzyl)-[1,2,4]triazolo[1,5-a]pyridine] |  | 5.44 nM | 
15 | CCn1cc(C(F)(F)F)nc1-c1c(F)cc(Cc2cccc3nc(-c4c(OC)ncnc4C4CC4)nn23)cc1OC [Example 39, 2-(4-cyclopropyl-6-methoxypyrimidin-5-yl)-5-(4-(1-ethyl-4-(trifluoromethyl)-1H-imidazol-2-yl)-3-fluoro-5-methoxybenzyl)-[1,2,4]triazolo[1,5-a]pyridine] |  | 18.8 nM | 
16 | CCn1cc(C(F)(F)F)nc1-c1c(F)cc(Cc2nccc3nc(-c4c(OC)ncnc4C4CC4)nn23)cc1F [Example 42, 2-(4-cyclopropyl-6-methoxypyrimidin-5-yl)-5-(4-(1-ethyl-4-(trifluoromethyl)-1H-imidazol-2-yl)-3,5-difluorobenzyl)-[1,2,4]triazolo[1,5-c]pyrimidine] |  | 732 nM | 
17 | COc1ncnc(C2CC2)c1-c1nc2cncc(Cc3ccc(-c4nc(C(F)(F)F)cn4C4CC4)cc3)n2n1 [Example 43, 5-(4-(1-cyclopropyl-4-(trifluoromethyl)-1H-imidazol-2-yl)benzyl)-2-(4-cyclopropyl-6-methoxypyrimidin-5-yl)-[1,2,4]triazolo[1,5-a]pyrazine] |  | 38.9 nM | 
18 | COc1ncnc(C2CC2)c1-c1nc2cncc(Cc3ccc(-c4nc(C(F)(F)F)cn4C)c(F)c3)n2n1 [Example 44, 2-(4-cyclopropyl-6-methoxypyrimidin-5-yl)-5-(3-fluoro-4-(1-methyl-4-(trifluoromethyl)-1H-imidazol-2-yl)benzyl)-[1,2,4]triazolo[1,5-a]pyrazine] |  | 78.3 nM | 
19 | CCn1cc(C(F)(F)F)nc1-c1c(F)cc(Cc2cncc3nc(-c4c(OC)ncnc4C4CC4)nn23)cc1F [Example 45, 2-(4-cyclopropyl-6-methoxypyrimidin-5-yl)-5-(4-(1-ethyl-4-(trifluoromethyl)-1H-imidazol-2-yl)-3,5-difluorobenzyl)-[1,2,4]triazolo[1,5-a]pyrazine] |  | 99.7 nM | 
